Here are results for 3 molecules from paper PMC3519909 (PLoS Biology, 2012).

The target of one data set is T1, Ima5 (Saccharomyces cerevisiae, UniProt P40884).
T1 construct: crude extract of yeast overexpressing IMA5, compared with ima5 deletion mutant
T1 sequence (P40884 1-581): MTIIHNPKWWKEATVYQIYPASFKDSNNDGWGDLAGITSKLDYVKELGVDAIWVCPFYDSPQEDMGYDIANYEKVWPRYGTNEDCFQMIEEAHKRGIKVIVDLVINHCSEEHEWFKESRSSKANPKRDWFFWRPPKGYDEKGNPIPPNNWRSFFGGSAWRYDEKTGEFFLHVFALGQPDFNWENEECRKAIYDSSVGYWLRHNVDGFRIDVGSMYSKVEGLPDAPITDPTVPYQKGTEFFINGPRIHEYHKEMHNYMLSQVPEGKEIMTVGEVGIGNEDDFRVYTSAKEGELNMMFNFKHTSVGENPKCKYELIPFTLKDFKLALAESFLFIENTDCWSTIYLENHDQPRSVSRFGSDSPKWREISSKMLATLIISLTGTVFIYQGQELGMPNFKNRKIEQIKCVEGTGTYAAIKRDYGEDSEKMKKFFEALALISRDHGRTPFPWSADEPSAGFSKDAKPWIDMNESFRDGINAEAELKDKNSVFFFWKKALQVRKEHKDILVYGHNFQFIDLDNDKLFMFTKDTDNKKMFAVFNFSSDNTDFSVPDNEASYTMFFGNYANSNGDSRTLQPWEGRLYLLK
Put plainly: glucose release, crude extract of IMA5-overexpressing yeast. Type of data set: biochemical. To be noted: relative to ima5 deletion mutant.

The next data set deals with T2, K. lactis [GI: 50312678] (Kluyveromyces lactis, UniProt Q6CSK8).
T2 construct: gene KLLA0_B00242g
T2 sequence (Q6CSK8 entry or part of it): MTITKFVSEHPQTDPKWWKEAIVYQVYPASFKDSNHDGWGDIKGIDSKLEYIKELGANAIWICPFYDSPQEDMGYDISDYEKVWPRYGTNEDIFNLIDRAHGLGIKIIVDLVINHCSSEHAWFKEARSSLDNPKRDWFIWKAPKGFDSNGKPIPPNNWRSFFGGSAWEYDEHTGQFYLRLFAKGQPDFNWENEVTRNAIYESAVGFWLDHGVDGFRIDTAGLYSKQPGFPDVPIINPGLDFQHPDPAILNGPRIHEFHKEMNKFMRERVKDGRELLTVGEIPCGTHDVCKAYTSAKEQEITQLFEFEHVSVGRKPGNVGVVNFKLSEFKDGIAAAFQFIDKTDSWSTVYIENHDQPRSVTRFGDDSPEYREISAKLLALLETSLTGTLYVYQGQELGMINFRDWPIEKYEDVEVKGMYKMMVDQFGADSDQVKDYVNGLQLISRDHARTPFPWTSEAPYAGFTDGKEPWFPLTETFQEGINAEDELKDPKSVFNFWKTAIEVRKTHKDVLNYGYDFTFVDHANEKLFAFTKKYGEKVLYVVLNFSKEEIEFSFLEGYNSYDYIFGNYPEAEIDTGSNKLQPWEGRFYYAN
Put plainly: glucose oxidase/peroxidase coupled glucose release. In kind it is biochemical. As to conditions: Michaelis-Menten or Hill fit.

Substrate in data set [1]: CO[C@H]1O[C@H](CO)[C@@H](O)[C@H](O)[C@H]1O
Briefly: glucose oxidase/peroxidase coupled glucose release. In kind it is biochemical, Saccharomyces cerevisiae. As to conditions: Michaelis-Menten or Hill fit.

On to `OC[C@H]1O[C@H](OC[C@H]2OC(O)[C@H](O)[C@@H](O)[C@@H]2O)[C@H](O)[C@@H](O)[C@@H]1O` (stereo partly shown) [isomaltose], for which the relative activity result at Ima5 is given as “relative enzyme activity in crude extracts derived from a yeast strain overexpressing IMA5”.
Consider `OC[C@H]1O[C@H](O[C@H]2[C@H](O)[C@@H](O)C(O)O[C@@H]2CO)[C@H](O)[C@@H](O)[C@@H]1O` (stereo partly shown) [maltose], for which the Km entry at K. lactis [GI: 50312678] is on record as “one of the paralogs retains the broad specificity of ancMalS”.

B1: Ima1 (Saccharomyces cerevisiae S288C) (protein)
chain: TISSAHPETEPKWWKEATFYQIYPASFKDSNDDGWGDMKGIASKLEYIKELGADAIWISPFYDSPQDDMGYDIANYEKVWPTYGTNEDCFALIEKTHKLGMKFITDLVINHCSSEHEWFKESRSSKTNPKRDWFFWRPPKGYDAEGKPIPPNNWKSYFGGSAWTFDEKTQEFYLRLFCSTQPDLNWENEDCRKAIYESAVGYWLDHGVDGFRIDVGSLYSKVVGLPDAPVVDKNSTWQSSDPYTLNGPRIHEFHQEMNQFIRNRVKDGREIMTVGEMQHASDETKRLYTSASRHELSELFNFSHTDVGTSPLFRYNLVPFELKDWKIALAELFRYINGTDCWSTIYLENHDQPRSITRFGDDSPKNRVISGKLLSVLLSALTGTLYVYQGQELGQINFKNWPVEKYEDVEIRNNYNAIKEEHGENSEEMKKFLEAIALISRDHARTPMQWSREEPNAGFSGPSAKPWFYLNDSFREGINVEDEIKDPNSVLNFWKEALKFRKAHKDITVYGYDFEFIDLDNKKLFSFTKKYNNKTLFAALNFSSDATDFKIPNDDSSFKLEFGNYPKKEVDASSRTLKPWEGRIYISE
notes: purified present-day enzyme; expression details in Text S1
Consider B1, for which, in data set [1], the Km is 16.40 ± 0.73 mM and the kcat turned out to be 0.2688 ± 0.00167 s⁻¹.

As a reminder, the Km is the concentration of substrate that gives half-maximal velocity. Broadly, the kcat is the number of substrate molecules converted per active site and unit of time at saturation.
